In patent publication US20250313574A1, “SIALIC ACID DERIVATIVES AND METHODS OF USING SAME” (EISAI R&D MANAGEMENT CO., LTD., priority 2022, published 2025):

Key:
[1] = molecular target: Recombinant human CD33 protein (Homo sapiens (Human), UniProt P20138); assay: CD33 competitive binding assay for HTS drug screen (fluorescent multivalent sialic acid probe)
Summary of the method: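 Recombinant human CD33, coated overnight at 4° C from 10 μg/ml in pH 5.5 acetate, was preincubated briefly with compound. It was then exposed to a multivalent neutravidin/FITC/sialic acid analog A-375 probe (final 5 μM neutravidin, 15 μM A-375, 5 μM FITC) for 30 min at room temperature. After washing, bound FITC fluorescence was read.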

[2] = molecular target: Recombinant Human Siglec-3/CD33 protein (His-CD33) (Homo sapiens (Human), UniProt P20138); assay: Differential scanning fluorimetry (DSF) thermal shift assay; format: binding; conditions: difference in thermal melt of CD33 protein (0.5 μM) with 50 μM compound
Chain of Recombinant Human Siglec-3/CD33 protein (His-CD33) (P20138 18-259): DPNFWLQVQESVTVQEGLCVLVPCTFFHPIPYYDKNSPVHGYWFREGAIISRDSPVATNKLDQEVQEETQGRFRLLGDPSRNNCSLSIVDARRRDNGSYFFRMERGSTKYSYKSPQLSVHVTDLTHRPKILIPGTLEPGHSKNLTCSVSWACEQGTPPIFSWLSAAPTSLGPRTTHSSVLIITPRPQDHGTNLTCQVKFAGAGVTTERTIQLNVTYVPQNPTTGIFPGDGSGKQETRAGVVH

Chain of Recombinant human CD33 protein (P20138 18-259): as above

SMILES	EC50 [1]	DSF (dTmD) [2]
Cc1cc(C(=O)NC[C@@H](O)[C@@H](O)[C@@H]2O[C@@](OC3CCCCC3NC(=O)CNC(=O)COC3CCCC3)(C(=O)O)C[C@H](O)[C@H]2NC(=O)Cn2cc(C3CCCCC3)nn2)cc(C)c1O (some centres unmarked) [A-329]	15.2 µM	1.4 °C
Cc1cc(C(=O)NC[C@@H](O)[C@@H](O)[C@@H]2O[C@@](OC3CCCCC3NC(=O)Cn3cc(CNC(=O)c4cccc(C#N)c4)nn3)(C(=O)O)C[C@H](O)[C@H]2NC(=O)Cn2cc(C3CCCCC3)nn2)cc(C)c1O (some centres unmarked) [A-330]	4.81 µM	5.0 °C
Cc1cc(C(=O)NC[C@@H](O)[C@@H](O)[C@@H]2O[C@@](OC3CCCCC3NC(=O)Cn3cc(Cn4ncc5ccccc5c4=O)nn3)(C(=O)O)C[C@H](O)[C@H]2NC(=O)Cn2cc(C3CCCCC3)nn2)cc(C)c1O (some centres unmarked) [A-331]	4.33 µM	4.9 °C
Cc1cc(C(=O)NC[C@@H](O)[C@@H](O)[C@@H]2O[C@@](OC3CCCCC3NC(=O)Cn3cc(CNC(=O)c4ccccn4)nn3)(C(=O)O)C[C@H](O)[C@H]2NC(=O)Cn2cc(C3CCCCC3)nn2)cc(C)c1O (some centres unmarked) [A-332]	2.3 µM	5.4 °C
Cc1cc(C(=O)NC[C@@H](O)[C@@H](O)[C@@H]2O[C@@](OC3CCCCC3NC(=O)Cn3cc(-c4ccccc4)nn3)(C(=O)O)C[C@H](O)[C@H]2NC(=O)Cn2cc(C3CCCCC3)nn2)cc(C)c1O (some centres unmarked) [A-333]	12.2 µM	4.5 °C
Cc1cc(C(=O)NC[C@@H](O)[C@@H](O)[C@@H]2O[C@@](OC3CCCCC3NC(=O)Cn3cc(CNC(=O)N4CCOCC4)nn3)(C(=O)O)C[C@H](O)[C@H]2NC(=O)Cn2cc(C3CCCCC3)nn2)cc(C)c1O (some centres unmarked) [A-334]	7.7 µM	2.8 °C
Cc1cc2cc(C)c1OCCCOC[C@H](NC(=O)C1CCCOC1)COC/C=C/C[C@]1(C(=O)O)C[C@H](O)[C@@H](NC(=O)Cn3cc(C4CCCCC4)nn3)[C@@H](O1)[C@H](O)[C@H](O)CNC2=O (some centres unmarked) [A-335]	0.601 µM	6.4 °C
CC(=O)N[C@H]1[C@H]2O[C@](C(=O)O)(C/C=C/COC[C@@H](NC(=O)[C@@H]3CCCOC3)COCCCOc3c(C)cc(cc3C)C(=O)NC[C@@H](O)[C@H]2O)C[C@@H]1O [A-336]	4.19 µM	3.6 °C
CC(=O)N[C@H]1[C@H]2O[C@](C(=O)O)(C/C=C/COC[C@@H](NC(=O)[C@H]3CCCOC3)COCCCOc3c(C)cc(cc3C)C(=O)NC[C@@H](O)[C@H]2O)C[C@@H]1O [A-337]	14.1 µM	2.2 °C
Cc1cc2cc(C)c1OCCOC[C@@H](NC(=O)C1CCCOC1)COC/C=C/C[C@]1(C(=O)O)C[C@H](O)[C@@H](NC(=O)Cn3cc(C4CCCCC4)nn3)[C@@H](O1)[C@H](O)[C@H](O)CNC2=O (some centres unmarked) [A-338]	3.82 µM	5.6 °C
CC(=O)N[C@H]1[C@H]2O[C@](C(=O)O)(C/C=C/COC[C@H](NC(=O)C3CCCOC3)COCCOc3c(C)cc(cc3C)C(=O)NC[C@@H](O)[C@H]2O)C[C@@H]1O (some centres unmarked) [A-339]	5.91 µM	4.4 °C
Cc1cc2cc(C)c1OCCOC[C@@H](NC(=O)C1CCCOC1)COCCCC[C@]1(C(=O)O)C[C@H](O)[C@@H](NC(=O)Cn3cc(C4CCCCC4)nn3)[C@@H](O1)[C@H](O)[C@H](O)CNC2=O (some centres unmarked) [A-340]	3.5 µM	4.22 °C
Cc1cc2cc(C)c1OCCOC[C@@H](NC(=O)C1CCCOC1)COC/C=C/C[C@]1(C(=O)O)C[C@H](O)[C@@H](NC(=O)Cn3cc(C4CCCCC4)nn3)[C@@H](O1)[C@H](O)[C@H](O)CNC2=O (some centres unmarked) [A-341]	9.98 µM	2.7 °C
CC(=O)N[C@H]1[C@H]2O[C@](C(=O)O)(CCCCOC[C@@H](NC(=O)C3CCCOC3)COCCOc3c(C)cc(cc3C)C(=O)NC[C@@H](O)[C@H]2O)C[C@@H]1O (some centres unmarked) [A-342]	45.4 µM	1.5 °C
CC(=O)N[C@H]1[C@H]2O[C@](C(=O)O)(C/C=C/COC[C@@H](NC(=O)OC(C)(C)C)COCCCOc3c(C)cc(cc3C)C(=O)NC[C@@H](O)[C@H]2O)C[C@@H]1O [A-343]	6.54 µM	4.6 °C
Cc1cc2cc(C)c1OCCCNC(=O)CCCCCCC[C@]1(C(=O)O)C[C@H](O)[C@@H](NC(=O)Cn3cc(C4CCCCC4)nn3)[C@@H](O1)[C@H](O)[C@H](O)CNC2=O [A-344]	18 µM	1.52 °C
Cc1cc2cc(C)c1OCCCNC(=O)CCCCCC[C@]1(C(=O)O)C[C@H](O)[C@@H](NC(=O)Cn3cc(C4CCCCC4)nn3)[C@@H](O1)[C@H](O)[C@H](O)CNC2=O [A-345]	21.4 µM	3.2 °C
Cc1cc2cc(C)c1OCCCCNC(=O)CCCCCC[C@]1(C(=O)O)C[C@H](O)[C@@H](NC(=O)Cn3cc(C4CCCCC4)nn3)[C@@H](O1)[C@H](O)[C@H](O)CNC2=O [A-346]	13.3 µM	3.4 °C
Cc1cc2cc(C)c1OCCNC(=O)CCCCCCCC[C@]1(C(=O)O)C[C@H](O)[C@@H](NC(=O)Cn3cc(C4CCCCC4)nn3)[C@@H](O1)[C@H](O)[C@H](O)CNC2=O [A-347]	19 µM	3.6 °C

SMILES	EC50 [1]	DSF (dTmD) [2]
CC(=O)N[C@H]1[C@H]2O[C@](C(=O)O)(C/C=C/c3cccc(c3)[C@@H](NC(=O)[C@H]3CCCOC3)CCCCOc3c(C)cc(cc3C)C(=O)NC[C@@H](O)[C@H]2O)C[C@@H]1O [A-348]	10.1 µM	3.6 °C
CC(=O)N[C@H]1[C@H]2O[C@](C(=O)O)(C/C=C/c3cccc(c3)[C@@H](NC(=O)[C@@H]3CCCOC3)CCCCOc3c(C)cc(cc3C)C(=O)NC[C@@H](O)[C@H]2O)C[C@@H]1O [A-349]	5.24 µM	5.5 °C
CC(=O)N[C@H]1[C@H]2O[C@](C(=O)O)(CCCc3cccc(c3)[C@@H](NC(=O)C3CCCOC3)CCCCc3cc(cc(Cl)c3O)C(=O)NC[C@@H](O)[C@H]2O)C[C@@H]1O (some centres unmarked) [A-351]	15 µM	3.1 °C
CC(=O)N[C@H]1[C@H]2O[C@](C(=O)O)(C/C=C/c3cccc(c3)[C@@H](NC(=O)C3CCCOC3)CCCc3cc(cc(Cl)c3O)C(=O)NC[C@@H](O)[C@H]2O)C[C@@H]1O (some centres unmarked) [A-352]	94 µM	0.7 °C
CC(=O)N[C@H]1[C@H]2O[C@](C(=O)O)(C/C=C/c3cccc(c3)[C@@H](NC(=O)C3CCCOC3)CCCCc3cc(cc(Cl)c3O)C(=O)NC[C@@H](O)[C@H]2O)C[C@@H]1O (some centres unmarked) [A-353]	19 µM	3.6 °C
CC(=O)N[C@H]1[C@H]2O[C@](C(=O)O)(C/C=C/CCC[C@@H](NC(=O)[C@@H]3CCCOC3)c3cccc(c3)COc3c(C)cc(cc3C)C(=O)NC[C@@H](O)[C@H]2O)C[C@@H]1O [A-354]	27.5 µM	1.5 °C
CC(=O)N[C@H]1[C@H]2O[C@](C(=O)O)(C/C=C/CCC[C@@H](NC(=O)[C@H]3CCCOC3)c3cccc(c3)COc3c(C)cc(cc3C)C(=O)NC[C@@H](O)[C@H]2O)C[C@@H]1O [A-355]	35.4 µM	1.3 °C
Cc1cc2cc(C)c1OCc1cccc(c1)[C@H](NC(=O)C1CCCOC1)CCC/C=C/C[C@]1(C(=O)O)C[C@H](O)[C@@H](NC(=O)Cn3cc(C4CCCCC4)nn3)[C@@H](O1)[C@H](O)[C@H](O)CNC2=O (some centres unmarked) [A-356]	1.51 µM	4.8 °C
CC(=O)N[C@H]1[C@H]2O[C@](C(=O)O)(CC/C=C/CO[C@H]3C[C@H](CN3C(=O)C3CCCOC3)OCCOc3c(C)cc(cc3C)C(=O)NC[C@@H](O)[C@H]2O)C[C@@H]1O (some centres unmarked) [A-357]	66.1 µM	1.1 °C
Cc1cc2cc(C)c1OCCO[C@@H]1C[C@H](OC/C=C/CC[C@]3(C(=O)O)C[C@H](O)[C@@H](NC(=O)Cn4cc(C5CCCCC5)nn4)[C@@H](O3)[C@H](O)[C@H](O)CNC2=O)N(C(=O)C2CCCOC2)C1 (some centres unmarked) [A-358]	9.43 µM	3.5 °C
Cc1cc2cc(C)c1OCCCNC(=O)[C@H](C)COCCCC[C@]1(C(=O)O)C[C@H](O)[C@@H](NC(=O)Cn3cc(C4CCCCC4)nn3)[C@@H](O1)[C@H](O)[C@H](O)CNC2=O [A-359]	59.8 µM	1.1 °C
CC(=O)N[C@H]1[C@H]([C@H](O)[C@H](O)CNC(=O)c2cc(C)c(O)c(C)c2)O[C@](CO)(CCN2CCOC[C@@]23CCN(C(=O)OC(C)(C)C)C3)C[C@@H]1O [A-360]	> 100 µM	−0.3 °C
COC(=O)[C@@]1(CCN2CCOC[C@@]23CCN(C(=O)OC(C)(C)C)C3)C[C@H](O)[C@@H](NC(C)=O)[C@H]([C@H](O)[C@H](O)CNC(=O)c2cc(C)c(O)c(C)c2)O1 [A-361]	49 µM	−0.3 °C
CC(=O)N[C@H]1[C@H]([C@H](O)[C@H](O)CNC(=O)c2cc(C)c(O)c(C)c2)O[C@](C#N)(CCN2CCOC[C@@]23CCN(C(=O)OC(C)(C)C)C3)C[C@@H]1O [A-362]	> 100 µM	−0.3 °C
CC(=O)N[C@H]1[C@H]([C@H](O)[C@H](O)CNC(=O)c2cc(C)c(O)c(C)c2)O[C@@](CCN2CCOC[C@@]23CCN(C(=O)OC(C)(C)C)C3)(c2nn[nH]n2)C[C@@H]1O [A-363]	6.36 µM	2.6 °C
CC(=O)N[C@H]1[C@H]([C@H](O)[C@H](O)CNC(=O)c2cc(C)c(O)c(C)c2)O[C@@](CCN2CCOC[C@@]23CCN(C(=O)OC(C)(C)C)C3)(C(N)=O)C[C@@H]1O [A-364]	> 100 µM	0.1 °C
CC(=O)N[C@H]1[C@H]([C@H](O)[C@H](O)CNC(=O)c2cc(C)c(O)c(C)c2)O[C@@](CCN2CCOC[C@@]23CCN(C(=O)OC(C)(C)C)C3)(C(=O)NS(C)(=O)=O)C[C@@H]1O [A-365]	37.5 µM	−0.3 °C
CC(=O)N[C@H]1[C@H]([C@H](O)[C@H](O)CNC(=O)c2cc(C)c(O)c(C)c2)O[C@@](CCN2CCOC[C@@]23CCN(C(=O)OC(C)(C)C)C3)(C(=O)NC#N)C[C@@H]1O [A-366]	2.83 µM	2.9 °C
